Measurements as given in paper PMC5651845, “A New Generation of Arachidonic Acid Analogues as Potential Neurological Agent Targeting Cytosolic Phospholipase A2” (Scientific Reports, 2017).

What was measured:
recombinant cPLA2 [1] = biological target: T1, recombinant cPLA2 (Homo sapiens, UniProt P47712); assay: EnzChek phospholipase A2 fluorogenic assay (% activity) at 10 μM; format: biochemical; settings: 10 μM compound
T1 construct: purchased US Biological P4074-03R
T1 sequence (P47712 1-749): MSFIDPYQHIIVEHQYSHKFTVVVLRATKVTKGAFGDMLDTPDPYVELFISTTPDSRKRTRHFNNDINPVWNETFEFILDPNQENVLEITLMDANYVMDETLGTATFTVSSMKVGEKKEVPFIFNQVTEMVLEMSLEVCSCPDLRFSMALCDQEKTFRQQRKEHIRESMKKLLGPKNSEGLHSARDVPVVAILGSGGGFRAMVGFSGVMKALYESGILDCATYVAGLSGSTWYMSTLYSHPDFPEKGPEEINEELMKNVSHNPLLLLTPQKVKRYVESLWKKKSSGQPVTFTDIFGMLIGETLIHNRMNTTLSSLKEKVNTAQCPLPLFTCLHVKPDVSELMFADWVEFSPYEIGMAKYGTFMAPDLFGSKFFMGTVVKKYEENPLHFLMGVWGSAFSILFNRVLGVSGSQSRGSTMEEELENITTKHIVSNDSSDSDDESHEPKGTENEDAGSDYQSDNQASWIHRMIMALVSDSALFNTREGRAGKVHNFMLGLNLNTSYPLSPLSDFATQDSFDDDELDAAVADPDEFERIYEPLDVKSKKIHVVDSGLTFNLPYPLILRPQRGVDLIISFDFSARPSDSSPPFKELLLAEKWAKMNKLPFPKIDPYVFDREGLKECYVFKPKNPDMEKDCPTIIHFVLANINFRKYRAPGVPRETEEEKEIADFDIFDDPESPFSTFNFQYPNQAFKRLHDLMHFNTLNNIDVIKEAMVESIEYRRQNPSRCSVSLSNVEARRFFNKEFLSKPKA
Method: The compounds were evaluated with a fluorogenic PLA2 assay kit (EnzChek® Phospholipase A2 Assay Kit, Catalog No: E10217) at a standard 10 μM concentration. Potential inhibitors were determined by their ability to lower cPLA2 activity to a greater extent than 1a.
The assay was conducted according to the manufacturer’s instruction (E10217, Molecular Probes) with slight modification. Briefly, substrate solution was separately prepared by mixing 5 μL of DOPG, 5 μL of DOPC and 5 μL of substrate respectively in 1.5 mL of 1X phospholipase A2 reaction buffer. The mixture was vortexed vigorously for 3 min before allowing to stand at room temperature for 1 h. 48 μL of 1X phospholipase A2 reaction buffer were added into each well of a 96-wells plate. This was followed by addition of 1 μL of recombinant cPLA2 (P4074-03R, US Biological) and 1 μL of 1 mM of the respective compound dissolved in DMSO. The final concentration of the test compound achieved is 10 μM. The reaction was initiated by adding 50 μL of the substrate solution and incubating at room temperature for 1 h. Fluorescence was measured using a Varioskan plate reader (Thermo Scientific, MA, USA) by exciting at 485 nm, while fluorescence emission was detected at 515 nm. Positive control was performed when 1 μL of test compound was replaced by vehicle DMSO. % activity was expressed as the mean value of duplicate wells from three experiments. % activity was calculated by the following formula1 %activity=fluorescenceoftestedwell−background/fluorescenceofpostivecontrol−background

recombinant cPLA2 [2] = biological target: T1, recombinant cPLA2; assay: EnzChek phospholipase A2 fluorogenic assay (IC50); format: biochemical
Method: The assay was conducted as described above. Instead of adding a fixed concentration of the test compound, various concentrations of compound were reconstituted in DMSO. 48 μL of 1X phospholipase A2 reaction buffer were added into each well of a 96-wells plate. This was followed by addition of 1 μL of recombinant cPLA2 (P4074-03R, US Biological) and 1 μL of the respective concentration of the test compound dissolved in DMSO. The reaction was initiated by adding 50 μL of the substrate solution and incubating at room temperature for 1 h. Fluorescence was measured using a Varioskan plate reader by exciting at 485 nm, while fluorescence emission was detected at 515 nm. Positive control was performed when 1 μL of test compound was replaced by vehicle DMSO. IC50 was expressed as the mean value of duplicate wells from three experiments.

[3] = tested on: ROS production in BV-2 cells; assay: ROS assay (CM-H2DCFDA) in LPS-stimulated BV-2 cells; format: cell-based, murine; settings: 2, 10 and 20 μM, 2 µg/mL LPS, 14 h
Method: CM-H2DCFDA was used as the main detection reagent for ROS for this study. Being a chloromethyl derivative of the conventional H2DCFDA, it is better retained in the cells due to the reaction of its chloromethyl group with intracellular thiol species. In addition, esterase present in the cells would convert the acetate group found in CM-H2DCFDA into carboxylic acid, further retaining it in the cell. To investigate the ROS production by BV-2 cell stimulated with LPS, intracellular ROS was measured 14 h post-stimulation with CM-H2DCFDA fluorescence. A 2-fold increase in ROS was detected as compared to the control. […] This could be because the activation of ROS production might not be solely due to the inflammatory pathway mechanism involving cPLA2. It was reported in previous studies that a multitude of several other processes producing ROS may be at work[51],[52].
20,000 BV-2 cells were seeded into a 96-well plate in 100 uL of culture medium and allowed to grow overnight. When a 90% cell confluency was observed, lipopolysaccharide pre-dissolved in culture medium to achieve a concentration of 2 μg/mL was added to each well of the 96 well. Different concentrations of test compounds in DMSO were added to the LPS containing medium and was then transferred to the cells. […] Fluorescence detection was done by exciting the dye at 485 nm and detection of emission at 525 nm. […]

## CCCCC/C=C\C/C=C\C/C=C\C/C=C\CCCCC(=O)Nc1cccc(C(=O)O)c1 [2i]
Recombinant cPLA2 [1]
  inhibition at 10 µM: 88.5%
Recombinant cPLA2 [1]; 1 h, room temperature
  remaining activity at 10 µM: 11.5 ± 1%
Recombinant cPLA2 [2]
  IC50: 2900 ± 200 nM
Recombinant cPLA2 [2]; relative to 1a
  fold stronger cPLA2 inhibition than 1a (from IC50): 5.5 fold
[3]
  ROS level, concentration dependence: dose-dependent decrease in ROS
